Test results reported in patent publication US20210355106A1, “NEW AMINO-PYRIMIDONYL-PIPERIDINYL DERIVATIVES, A PROCESS FOR THEIR PREPARATION AND PHARMACEUTICAL COMPOSITIONS CONTAINING THEM” (LES LABORATOIRES SERVIER, priority 2018, published 2021).
Several values for one entry are separate records, joined by “and”; a condition that tells them apart may be missing. Identical values can stand only once.

Assays:
USP7 = target: T1, USP7 (Homo sapiens, UniProt Q93009, C315A); assay: Inhibition of USP7 by Fluorescence Intensity (FLINT) readings, Ubiquitin-Rhodamine-110 substrate; format: biochemical; conditions: 0.25 nM His-His-USP7 (aa208-560), 60 minutes at 30° C. preincubation; Ki determined from IC50 according to Cer et al.
T1 construct: 0.25 nM His-His-USP7 (aa208-560, |C315A|) was incubated with compound; His-His (N)
Summary of the method: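 His-tagged USP7 (aa208-560, C315A), 0.25 nM, preincubated with compound 60 min at 30 °C in 100 mM Bicine pH 8.0, 0.01% Triton X-100, 1 mM TCEP, 10% DMSO. Ubiquitin-Rhodamine-110 (50 nM or 4 μM) added; kinetic fluorescence (Ex 485/Em 535 nm) over 21 min; IC50 from 11-point curves, Ki derived from IC50.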

[1] = tested on: Z138 mantle cell lymphoma tumour cell lines; assay: In vitro cytotoxicity, MTT assay; format: cell-based; conditions: Z138 cells, exposed to the test compounds for 96 hours
Experimental: The cytotoxicity studies were evaluated by MTT [3-(4,5-dimethylthiaxol-2-yl)-2,5-diphenyltetrazolium bromide|assay and carried out on Z138 mantle cell lymphoma tumour cell lines. The cells are distributed onto microplates and exposed to the test compounds for 96 hours. MTT is then added for 4 hours and converted by NAD(P)H-dependent cellular oxidoreductase enzymes in forma/an, which has a purple color. The viable cell number is proportional to the production of formazan salts and cell viability can be quantified by the absorbance of the solution at 540 nm with a spectrophotometer (Carmichael et al., Cancer Res. 1987, 47, 936-942).

T1 sequence (Q93009 208-560 C315A): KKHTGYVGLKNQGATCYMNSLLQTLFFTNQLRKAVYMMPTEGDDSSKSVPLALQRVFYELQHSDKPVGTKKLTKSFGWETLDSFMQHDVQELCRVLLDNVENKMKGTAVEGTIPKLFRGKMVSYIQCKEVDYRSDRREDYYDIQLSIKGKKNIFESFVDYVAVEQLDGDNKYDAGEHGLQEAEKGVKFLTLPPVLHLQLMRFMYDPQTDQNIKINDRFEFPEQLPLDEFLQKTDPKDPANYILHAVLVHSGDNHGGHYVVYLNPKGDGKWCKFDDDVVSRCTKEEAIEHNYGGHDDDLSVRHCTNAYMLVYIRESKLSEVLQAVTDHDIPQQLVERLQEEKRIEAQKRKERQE

Compound	Ki (USP7)	IC50 ([1]; Homo sapiens, Z-138) [nM]	IC50 [1] [nM]
Nc1c(Oc2ccc(F)cc2)ncn(C[C@@]2(O)CCN(C(=O)[C@@H]3CCN(C(=O)Nc4ccccc4)C[C@H]3c3ccccc3)CC2(F)F)c1=O [Example 77]	37 nM	13	
Cc1ccc(-c2cc(CN3CC[C@@H](C(=O)N4CC[C@](O)(Cn5cnc(Oc6ccc(F)cc6)c(N)c5=O)C(F)(F)C4)[C@H](c4ccccc4)C3)ncn2)cn1 [Example 164, 5-amino-3-[[(4S)-3,3-difluoro-4-hydroxy-1-[(3R,4R)-1-[[6-(6-methyl-3-pyridyl)pyrimidin-4-yl}methyl]-3-phenyl-piperidine-4-carbonyl]-4-piperidyl]methyl]-6-(4-fluorophenoxy)pyrimidin-4-one]	6.48 nM and 5.16 nM	1.83	
Nc1c(Oc2ccc(F)cc2)ncn(CC2(O)CCN(C(=O)[C@@H]3CCN(C(=O)c4cncc(Cl)c4)C[C@H]3c3ccccc3)CC2)c1=O [Example 133, 5-amino-3-[[1-[(3R,4R)-1-(5-chloropyridine-3-carbonyl)-3-phenyl-piperidine-4-carbonyl]-4-hydroxy-4-piperidyl]methyl]-6-(4-fluorophenoxy)pyrimidin-4-one]	1.52 nM	9.8	
Cc1ccc(-c2nccc(CN3CC[C@@H](C(=O)N4CC[C@](O)(Cn5cnc(Oc6ccc(F)cc6)c(N)c5=O)C(F)(F)C4)[C@H](c4ccccc4)C3)n2)cn1 [Example 176, 5-amino-3-[[(4S)-3,3-difluoro-4-hydroxy-1-((3R,4R)-1-{[2-(6-methyl-3-pyridyl)pyrimidin-4-yl]methyl]-3-phenyl-piperidine-4-carbonyl]-4-piperidyl]methyl]-6-(4-fluorophenoxy)pyrimidin-4-one]	3.2 nM	1.52	
Cc1ccc(-c2ncc(C(=O)N3CC[C@@H](C(=O)N4CCC(O)(Cn5cnc(Oc6ccc(F)cc6)c(N)c5=O)CC4)[C@H](c4ccccc4)C3)n2C)cn1 [Example 96, 5-amino-6-(4-fluorophenoxy)-3-[(4-hydroxy-1-{(3R,4R)-1-[1-methyl-2-(6-methylpyridin-3-yl)-1H-imidazole-5-carbonyl]-3-phenylpiperidine-4-carbonyl}piperidin-4-yl)methyl]pyrimidin-4(3H)-one]	7.21 nM	27.3	
Nc1c(Oc2ccc(F)cc2)ncn(C[C@@]2(O)CCN(C(=O)[C@@H]3CCN(Cc4ccncn4)C[C@H]3c3ccccc3)CC2(F)F)c1=O [Example 212, 5-amino-3-[[(4S)-3,3-difluoro-4-hydroxy-1-[(3R,4R)-3-phenyl-1-(pyrimidin-4-ylmethyl)piperidine-4-carbonyl]-4-piperidyl]methyl]-6-(4-fluorophenoxy)pyrimidin-4-one]	34.1 nM	21.4	
Nc1c(Oc2ccc(F)cc2)ncn(C[C@@]2(O)CCN(C(=O)[C@@H]3CCN(Cc4ncccn4)C[C@H]3c3ccccc3)CC2(F)F)c1=O [Example 204]	36.5 nM	26.9	
Nc1c(Oc2ccc(F)cc2)ncn(CC2(O)CCN(C(=O)[C@@H]3CCN(C(=O)c4cncc(F)c4)C[C@H]3c3ccccc3)CC2)c1=O [Example 134, 5-amino-6-(4-fluorophenoxy)-3-[[1-[(3R,4R)-1-(5-fluoropyridine-3-carbonyl)-3-phenyl-piperidine-4-carbonyl]-4-hydroxy-4-piperidyl]methyl]pyrimidin-4-one]	3.7 nM	17	
Nc1c(Oc2ccc(F)cc2)ncn(CC2(O)CCN(C(=O)[C@@H]3CCN(Cc4cnc(Br)s4)C[C@H]3c3ccccc3)CC2)c1=O [Example 50, 5-amino-3-[[1-[(3R,4R)-1-[(2-bromothiazol-5-yl)methyl]-3-phenyl-piperidine-4-carbonyl]-4-hydroxy-4-piperidyl]methyl]-6-(4-fluorophenoxy)pyrimidin-4-one]	7.89 nM	6.17	
Cc1nc(Br)sc1C(=O)N1CC[C@@H](C(=O)N2CCC(O)(Cn3cnc(Oc4ccc(F)cc4)c(N)c3=O)CC2)[C@H](c2ccccc2)C1 [Example 29, 5-amino-3-({1-[(3R,4R)-1-(2-bromo-4-methyl-1,3-thiazole-5-carbonyl)-3-phenylpiperidine-4-carbonyl]-4-hydroxypiperidin-4-yl}methyl)-6-(4-fluorophenoxy)pyrimidin-4(3H)-one]	7.1 nM	1.8	
Nc1c(Oc2ccc(F)cc2)ncn(CC2(O)CCN(C(=O)[C@@H]3CCN(C(=O)Nc4nc5ccccc5s4)C[C@H]3c3ccccc3)CC2)c1=O [Example 87, (3R,4R)-4-[4-[[5-amino-4-(4-fluorophenoxy)-6-oxo-pyrimidin-1-yl]methyl]-4-hydroxy-piperidine-1-carbonyl]-N-(1,3-benzothiazol-2-yl)-3-phenyl-piperidine-1-carboxamide]	88 nM	45	
5-amino-3-[[(3SR,4RS)-3-fluoro-4-hydroxy-1- (3R,4R)-1-[4-methyl-2-(6-methyl-3-pyridyl)thiazole-5-carbonyl]-3-phenyl-piperidine-4carbonyl]-4-piperidyl]methyl]-6-(4-fluorophenoxy)pyrimidin-4-one and 5-amino-3-[[(3RS,4SR)-3-fluoro-4-hydroxy-1-(3R,4R)-1-[4-methyl-2-(6-methyl-3-pyridyl)thiazole-5-carbonyl]-3-phenyl-piperidine-4-carbonyl]-4-piperidyl]methyl]-6-(4-fluorophenoxy)pyrimidin-4-one [Example 197]	14 nM		9.7
Nc1c(Oc2ccc(F)cc2)ncn(CC2(O)CCN(C(=O)[C@@H]3CCN(S(=O)(=O)c4cccc(Br)c4)C[C@H]3c3ccccc3)CC2)c1=O [Example 69, 5-amino-3-[[1-[(3R,4R)-1-(3-bromophenyl)sulfonyl-3-phenyl-piperidine-4-carbonyl]-4-hydroxy-4-piperidyl]methyl]-6-(4-fluorophenoxy)pyrimidin-4-one]	18.1 nM	21.7	
Nc1c(Oc2ccc(F)cc2)ncn(CC2(O)CCN(C(=O)[C@@H]3CCN(Cc4ccccc4F)C[C@H]3c3ccccc3)CC2)c1=O [Example 52, 5-amino-6-(4-fluorophenoxy)-3-[(1-((3R,4R)-1-[(2-fluorophenyl)methyl]-3-phenylpiperidine-4-carbonyl}-4-hydroxypiperidin-4-yl)methyl]pyrimidin-4(3H)-one]	13 nM	5.4	
Cc1ccc(-c2nc(C)c(C(=O)N3CC[C@@H](C(=O)N4CCC(O)(Cn5cnc(Oc6ccc(CNC(=O)OC(C)(C)C)cc6)c(N)c5=O)CC4)[C@H](c4ccccc4)C3)s2)cn1 [Example 223, tert-butyl N-[[4-[5-amino-1-[[4-hydroxy-1-[(3R,4R)-1-[4-methyl-2-(6-methyl-3-pyridyl)thiazole-5-carbonyl]-3-phenyl-piperidine-4-carbonyl]-4-piperidyl]methyl]-6-oxo-pyrimidin-4-yl]oxyphenyl]methyl]carbamate]	4.2 nM	73.2	
Nc1c(Oc2ccc(F)cc2)ncn(CC2(O)CCN(C(=O)[C@@H]3CCN(C(=O)c4cc(Cl)cc(Cl)c4)C[C@H]3c3ccccc3)CC2)c1=O [Example 130]	1.83 nM	7.5	
COc1cc(Cl)cc(Oc2ncn(C[C@@]3(O)CCN(C(=O)[C@@H]4CCN(Cc5ccnc(C)n5)C[C@H]4c4ccccc4)CC3(F)F)c(=O)c2N)c1 [Example 175, 5-amino-6-(3-chloro-5-methoxy-phenoxy)-3-[[(4S)-3,3-difluoro-4-hydroxy-1-[(3R,4R)-1-[(2-methylpyrimidin-4-yl)methyl]-3-phenyl-piperidine-4-carbonyl]-4-piperidyl]methyl]pyrimidin-4-one]	81.2 nM	26.5	
COc1cc(Oc2ncn(C[C@@]3(O)CCN(C(=O)[C@@H]4CCN(C(=O)c5sc(-c6ccc(C)nc6)nc5C)C[C@H]4c4ccccc4)CC3(F)F)c(=O)c2N)ccc1Cl [Example 184, 5-amino-6-(4-chloro-3-methoxy-phenoxy)-3-[[(4S)-3,3-difluoro-4-hydroxy-1-[(3R,4R)-1-[4-methyl-2-(6-methyl-3-pyridyl)thiazole-5-carbonyl]-3-phenyl-piperidine-4-carbonyl]-4-piperidyl]methyl]pyrimidin-4-one]	7.28 nM	3.96	
Nc1c(Oc2ccc(F)cc2)ncn(CC2(O)CCN(C(=O)[C@@H]3CCN(C(=O)Nc4nccs4)C[C@H]3c3ccccc3)CC2)c1=O [Example 86, (3R,4R)-4-[4-[[5-amino-4-(4-fluorophenoxy)-6-oxo-pyrimidin-1-yl]methyl]-4-hydroxy-piperidine-1-carbonyl]-3-phenyl-N-thiazol-2-yl-piperidine-1-carboxamide]	58 nM	838	
Cc1nc(Cc2ccccc2)sc1C(=O)N1CC[C@@H](C(=O)N2CCC(O)(Cn3cnc(Oc4ccc(F)cc4)c(N)c3=O)CC2)[C@H](c2ccccc2)C1 [Example 61, 5-amine-3-({1-[(3R,4R)-1-(2-benzyl-4-methyl-1,3-thiazole-5-carbonyl)-3-phenylpiperidine-4-carbonyl]-4-hydroxypiperidin-4-yl)methyl)-6-(4-fluorophenoxy)pyrimidin-4(3H)-one]	7.9 nM	17	
